Like-named read-outs stand apart in the source and are kept apart here.
Legend:
Blatta orientalis = settings: Blatta orientalis; for synergizing effect on Azamethiphos: synergist applied with Azamethiphos; for synergizing effect on Cypermethrin: synergist applied with Cypermethrin
Procedure: Method: Contact test on non-porous tile measuring 400 cm^2 at a temperature of 28° C. Test duration: up to 72 hours after exposure of the insect to the insecticidal active substance.
(§1) Three tests were performed in parallel, A, B, and C, as follows: • A) Comparative. 1 ml of Composition 2 was applied to the tile. After waiting for the complete evaporation of the solvent, 10 cockroaches were placed on top of the treated tile, starting the test. • B) According to the invention. 1 ml of Composition 8b was distributed on the tile. After waiting for the complete evaporation of the solvent, 1 ml of Composition 2 was added to the same tile. Subsequently, after waiting for the solvent to evaporate, 10 cockroaches were placed on top of the treated tile, starting the test. • C) According to the invention. 1 ml of Composition 8b was distributed on a tile. After waiting for the complete evaporation of the solvent, 10 cockroaches were placed for 30 minutes on top of the treated tile. At the end of the 30 minutes, the cockroaches were transferred to an untreated area.
Method: Contact test on non-porous tile measuring 400 cm^2 at a temperature of 28° C. Test duration: up to 120 hours after exposure of the insect to the insecticidal active substance.
as §1, with “4a” for “2”, “8d” for “8b”, “After” for “Subsequently, after”
Six tests were performed in parallel, A, B, C, D, E and F, as follows: • A) Comparative. 1 ml of Composition 9b was distributed on the tile. After waiting for the complete evaporation of the solvent, 1 ml of Composition 4a was added to the same tile. Subsequently, after waiting for the solvent to evaporate, 10 cockroaches were placed on top of the treated tile, starting the test. • B) Comparative. 1 ml of Composition 9b was distributed on a tile. After waiting for the complete evaporation of the solvent, 10 cockroaches were placed for 30 minutes on top of the treated tile. At the end of the 30 minutes, the cockroaches were transferred to an untreated area. […] 1 ml of Composition 10b was distributed on the tile. After waiting for the complete evaporation of the solvent, 1 ml of Composition 4a was added to the same tile. Subsequently, after waiting for the solvent to evaporate, 10 cockroaches were placed on top of the treated tile, starting the test. • D) Comparative. 1 ml of Composition 10b was distributed on a tile. After waiting for the complete evaporation of the solvent, 10 cockroaches were placed for 30 minutes on top of the treated tile. At the end of the 30 minutes, the cockroaches were transferred to an untreated area. […] 1 ml of Composition 8d was distributed on the tile. After waiting for the complete evaporation of the solvent, 1 ml of Composition 4a was added to the same tile. Subsequently, after waiting for the solvent to evaporate, 10 cockroaches were placed on top of the treated tile, starting the test. • F) According to the invention. 1 ml of Composition 8d was distributed on a tile. After waiting for the complete evaporation of the solvent, 10 cockroaches were placed for 30 minutes on top of the treated tile. At the end of the 30 minutes, the cockroaches were transferred to an untreated area.

Blattella germanica = assay: Contact test on non-porous tile, Blattella germanica; type: in vivo; settings: Blattella germanica; synergist applied with Imidacloprid
Procedure: 1 ml of Composition 36 was distributed on the tile. […] 1 ml of Composition 37 was distributed on a tile.

Q: With `CCCCCCCC/C=C\CCCCCCCCOC(C)=O` [Oleyl acetate] as the molecule, how does the “synergizing effect on Azamethiphos” value (Blatta orientalis) read?
A: Its value is “fine synergizing effect”.

Q: And the “synergizing effect on Cypermethrin” value (Blatta orientalis)?
A: The value was “excellent-fine synergizing effect”.

Q: How did the “synergizing effect on Azamethiphos” value (Blatta orientalis) turn out when `CCCCCCCCOC(=O)OCCCCCCCC` [dioctyl carbonate] was run?
A: The value was “good synergizing effect”.

Q: And the “synergizing effect on Cypermethrin” value (Blatta orientalis)?
A: The value was “synergizing effect”.

Q: Which results are given for Oleic alcohol [Oleic alcohol 95%]?
A: synergizing effect on Azamethiphos (Blatta orientalis): fine synergizing effect; synergizing effect on Cypermethrin (Blatta orientalis): fine synergizing effect; synergizing effect on Cypermethrin (Blatta orientalis; listed as oleic alcohol 95%): superior to that shown with PBO; synergizing effect on Imidacloprid (Blattella germanica): fine synergizing effect

Source: patent US20260215418A1, “HYDROCARBON ALCOHOLS AND THEIR DERIVATIVES AS SYNERGISTS IN PESTICIDE ACTIVITY” (priority 2022, published 2026)
